Measured values published in patent US12479816B2, “20-HETE formation inhibitors” (UNIVERSITY OF PITTSBURGH—OF THE COMMONWEALTH SYSTEM OF …, priority 2019, dated 2025).
≈ marks a conversion by molar mass, not a printed value.

Experiments:
[1] = test system: 20-HETE formation (CYP4) in HLM; experiment: Inhibition of 20-HETE formation at 250 or 500 nM in HLM microsomal incubations; format: biochemical, human; details: HLM 300 μg/ml, AA 100 μM, 20 min; for HLM % inh. @ 500 nM: 500 nM compound
Protocol: (§1) To screen the inhibitory effects against 20-HETE formation, compounds were screened in HLM, RLM, RKM and rCYP4F2 microsomal incubations. Compounds dissolved in either 100% methanol or 100% DMSO to yield 10 mM stock solution. Microsomal incubations containing HLM, RLM, RKM (300 μg/ml) or rCYP4F2 (25 pmol/mL), AA (100 μM), NADPH (1 mM) treated with test compounds at various concentrations (500 nM or 250 nM) in a 1 ml total volume in incubation buffer (0.12 M potassium phosphate buffer containing 5 mM magnesium chloride). Reaction was started by adding NADPH to the incubates and was carried out at 37° C. in a shaking water bath for 20 min. Reaction was stopped by placing tubes on ice, followed by adding 125 μl 20-HETE-d6 as internal standard to each sample. Microsomal incubations were extracted with 3 ml ethyl ether twice, dried down under nitrogen gas and reconstituted in 125 μl 80:20 methanol:deionized H2O for analysis. 20-HETE formation was quantified using a validated UPLC-MS/MS assay and normalized by vehicle group. Each compound had three replications (n=3). Vehicle group was used as control to calculate percentage of 20-HETE formation rate. HET0016 (250 nM) was used as positive control. Incubates without NADPH group served as the negative control. An Acquity ultra performance LC autosampler (Waters, Milford, MA) was used to isolate 20-HETE on an UPLC BEH C18, 1.7 μm (2.1×100 mm) reversed-phase column (Waters, Milford, MA) protected by a guard column (2.1×5 mm; Waters, Milford, MA) of the same packing material. Column temperature was maintained at 55° C. Mobile phases consisted of 0.005% acetic acid, 5% acetonitrile in deionized water (A) and 0.005% acetic acid in acetonitrile (B). The flow rate for mobile phases is 0.5 ml/min. The initial mixture of mobile phase was 65:35 of A and B. Mobile phase B increased at 0.4 minutes after injection from 35% to 70% in a linear gradient over 4 minutes, and again increased to 95% over 0.5 minutes where it remained for 0.3 minutes. This was followed by a linear return to initial conditions over 0.1 minutes with a 1.5 minute pre-equilibration period prior to the next sample run. Total run time was 6.4 minutes for each injection. Injection volumes were 7.5 μl. Mass spectrometric analysis was carried out using a TSQ Quantum Ultra (Thermo Fisher Scientific, San Jose, CA) triple quadrupole mass spectrometer using heated electrospray ionization (HESI). Mass spectrometer was operated in negative selective reaction monitoring (SRM) mode with unit resolutions at both Q1 and Q3 set at 0.70 Da full width at half maximum. Scan time was set at 0.01 s and collision gas pressure was 1.3 mTorr. Quantitation of 20-HETE by SRM was performed by monitoring the m/z. Analytical data was acquired and analyzed using Xcaliber 3.0 data system (ThermoFinnigan, San Jose, CA).

[2] = target: T1, rCYP4F2 (Homo sapiens, UniProt P78329); experiment: Inhibition of 20-HETE formation at 250 or 500 nM in rCYP4F2 incubations; format: biochemical; details: rCYP4F2 25 pmol/mL; for inhibition at 0.5 µM: 500 nM compound, read-out: rCYP4F2 % inh. @ 500 nM
T1 sequence (P78329 5-520): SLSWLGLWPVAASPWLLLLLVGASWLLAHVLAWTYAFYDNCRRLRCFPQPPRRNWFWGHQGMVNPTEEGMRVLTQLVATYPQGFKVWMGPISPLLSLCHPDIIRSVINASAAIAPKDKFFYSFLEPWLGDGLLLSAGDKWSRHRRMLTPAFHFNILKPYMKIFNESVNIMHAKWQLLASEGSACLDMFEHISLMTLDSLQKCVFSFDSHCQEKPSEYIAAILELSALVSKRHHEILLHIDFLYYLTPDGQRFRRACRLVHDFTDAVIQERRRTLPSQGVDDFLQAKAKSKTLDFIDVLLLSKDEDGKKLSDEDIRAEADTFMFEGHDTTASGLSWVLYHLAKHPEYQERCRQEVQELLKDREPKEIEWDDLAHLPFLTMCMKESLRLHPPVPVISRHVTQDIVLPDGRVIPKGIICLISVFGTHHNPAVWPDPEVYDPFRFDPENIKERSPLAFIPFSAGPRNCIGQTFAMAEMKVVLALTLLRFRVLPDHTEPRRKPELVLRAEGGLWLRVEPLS
Protocol: as §1

[3] = test system: 20-HETE formation (CYP4) in RKM; experiment: Inhibition of 20-HETE formation at 250 or 500 nM in RKM microsomal incubations; format: biochemical, rat; details: RKM 300 μg/ml; for RKM % inh. @ 500 nM: 500 nM compound
Protocol: as §1

[4] = test system: 20-HETE formation (CYP4) in RLM; experiment: Inhibition of 20-HETE formation at 250 or 500 nM in RLM microsomal incubations; format: biochemical, rat; details: RLM 300 μg/ml; for RLM % inh. @ 500 nM: 500 nM compound
Protocol: as §1

[5] = Turbidometric solubility determination; format: physicochemical; details: PBS with 1% DMSO, aqueous buffer, kinetic from dmso stock, room temperature, OD620, read-out: Max Solub
Protocol: Solubility determinations shown in Table 3 were obtained turbidometrically and in a manner similar to the one described in Perez et al., J. Biomol. Screen, 2015, 20(2), 254-64. The method requires small volumes of 100× stock concentration drug solution to be prepared in DMSO 0, 0.23, 0.47, 0.94, 1.88, 3.75, 7.5, 15.0, 30.0 and […]. The stock drug concentrations are then diluted 1:100 added into triplicate wells containing PBS in a clear bottom 384 well microtiter to achieve final testing concentrations of 0, 2.3, 4.7, 9.4, 18.8, 37.5, 75, 150, 300, 600 μM in 1% DMSO. The plate is allowed to equilibrate with constant shaking for 2 hours at room temperature. The plate is then placed in a SpectroMax V plate reader to measure absorbance at 620 nm. Increase in absorbance is evident in test wells which precipitation of the compound is evident. The plot of OD620 vs. drug concentration is used to calculate the maximum solubility limit as determined by a statistically significant increase in absorbance above the background levels.

| Compound | HLM % inh. @ 500 nM [1] [%] | inhibition at 0.5 µM [2] [%] | RKM % inh. @ 500 nM [3] [%] | RLM % inh. @ 500 nM [4] [%] | solubility at 2 h [5] [µM] | HLM % inh. @ 250 nM ([1]; 250 nM compound) [%] | inhibition at 0.25 µM ([2]; 250 nM compound, read-out: rCYP4F2 % inh. @ 250 nM) [%] | RKM % inh. @ 250 nM ([3]; 250 nM compound) [%] | RLM % inh. @ 250 nM ([4]; 250 nM compound) [%] |
| --- | --- | --- | --- | --- | --- | --- | --- | --- | --- |
| COc1ccc(C2CCN(c3ccn[nH]3)CC2)cc1F [Compound 43, 4-(3-Fluoro-4-methoxyphenyl)-1-(1H-pyrazol-5-yl)piperidine] | 82.00 | 79 | 31.00 | 17.00 |  |  |  |  |  |
| COc1cc(C2CCN(c3cn[nH]c3)CC2)ccn1 [Compound 15, 4-(1-(1H-Pyrazol-4-yl)piperidin-4-yl)-2-methoxypyridine] | 39.00 | 54 | 27.00 | 16.00 |  |  |  |  |  |
| c1cnc(C2CCN(c3ccn[nH]3)CC2)nc1 [Compound 9, 2-(1-(1H-Pyrazol-5-yl)piperidin-4-yl)pyrimidine] | 0.00 | 0 | 0.00 | 0.00 |  |  |  |  |  |
| CS(=O)(=O)Cc1ccc(C2CCN(c3cn[nH]c3)CC2)cc1 [Compound 89, 4-(4-((methylsulfonyl)methyl)phenyl)-1-(1H-pyrazol-4-yl)piperidine] | 34.8 | 72.9 |  | 0.00 | 324 (≈ 104 µg/mL) |  |  |  |  |
| COc1cccc(CC2CCN(c3cn[nH]c3)CC2)c1 [Compound 45, 4-(3-Methoxybenzyl)-1-(1H-pyrazol-4-yl)piperidine] | 71.00 | 73 | 0.00 | 24.00 |  |  |  |  |  |
| Fc1ccccc1C1CCN(c2ccn[nH]2)CC1 [Compound 50, 4-(2-Fluorophenyl)-1-(1H-pyrazol-5-yl)piperidine] | 47.00 | 69 | 18.00 | 16.00 |  |  |  |  |  |
| CC(=O)N(C)c1ccc(C2CCN(c3cn[nH]c3)CC2)cn1 [Compound 13, N-(5-(1-(1H-Pyrazol-4-yl)piperidin-4-yl)pyridin-2-yl)-N-methylacetamide] | 29.00 | 1 | 27.00 | 3.00 |  |  |  |  |  |
| c1cnc(C2CCN(c3cn[nH]c3)CC2)nc1 [Compound 10, 2-(1-(1H-Pyrazol-4-yl)piperidin-4-yl)pyrimidine] | 0.00 | 0 | 0.00 | 0.00 |  |  |  |  |  |
| Fc1cccc(C2CCN(c3ccn[nH]3)CC2)c1 [Compound 48, 4-(3-Fluorophenyl)-1-(1H-pyrazol-5-yl)piperidine] | 67.00 | 63 | 8.00 | 0.00 |  |  |  |  |  |
| COc1cc(F)cc(C2CCN(c3ccn[nH]3)CC2)c1 [Compound 73, 4-(3-Fluoro-5-methoxyphenyl)-1-(1H-pyrazol-5-yl)piperidine] | 61 | 54.7 |  | 0.00 | 164 (≈ 45.2 µg/mL) |  |  |  |  |
| c1ccc(N2CCN(c3ccn[nH]3)CC2)cc1 [Compound 53, 1-Phenyl-4-(1H-pyrazol-5-yl)piperazine] |  |  |  |  |  | 14.90 | 3.9 | 8.20 | 4.30 |
| COc1ccc(C2CCN(c3cn[nH]c3)CC2)c(Cl)c1 [Compound 65, 4-(2-Chloro-4-methoxyphenyl)-1-(1H-pyrazol-4-yl)piperidine] | 57.00 | 35 |  | 0.00 | 18.7 (≈ 5.46 µg/mL) |  |  |  |  |
| CC(=O)N(C)c1ccc(C2CCN(c3ccn[nH]3)CC2)c(F)c1 [Compound 71, N-(4-(1-(1H-Pyrazol-5-yl)piperidin-4-yl)-3-fluorophenyl)-N-methylacetamide] | 82 | 52.2 |  | 25.00 | > 600 |  |  |  |  |
| O=S(=O)(Nc1ccc(C2CCN(c3cn[nH]c3)CC2)cc1)C1CC1 [Compound 114, N-(4-(1-(1H-pyrazol-4-yl)piperidin-4-yl)phenyl)cyclopropanesulfonamide] | 68.7 | 87.4 |  | 36.70 | 74 (≈ 25.6 µg/mL) |  |  |  |  |
| COc1cc(F)cc(C2CCN(c3cn[nH]c3)CC2)c1 [Compound 72, 4-(3-Fluoro-5-methoxyphenyl)-1-(1H-pyrazol-4-yl)piperidine] | 77 | 77 |  | 11.00 | 234 (≈ 64.4 µg/mL) |  |  |  |  |
| COc1ccc(SC2CCN(c3cn[nH]c3)CC2)cc1 [Compound 80, 4-((4-Methoxyphenyl)thio)-1-(1H-pyrazol-4-yl)piperidine] | 86 | 90 |  | 42.00 | 89 (≈ 25.8 µg/mL) |  |  |  |  |
| COc1cc(C2CCN(c3cn[nH]c3)CC2)ccc1F [Compound 75, 4-(4-Fluoro-3-methoxyphenyl)-1-(1H-pyrazol-4-yl)piperidine] | 61.10 | 74.5 |  | 0.00 | 127 (≈ 35 µg/mL) |  |  |  |  |
| Clc1cccc(C2CCN(c3cn[nH]c3)CC2)c1 [Compound 61, 4-(3-Chlorophenyl)-1-(1H-pyrazol-4-yl)piperidine] | 77.5 | 81.3 |  | 61.00 | 121 (≈ 31.7 µg/mL) |  |  |  |  |
| O=S1(=O)Cc2ccc(C3CCN(c4cn[nH]c4)CC3)cc2C1 [Compound 108, 5-(1-(1H-Pyrazol-4-yl)piperidin-4-yl)-1,3-dihydrobenzo[c]thiophene 2,2-dioxide] | 90.00 | 83 |  | 41.70 | 187 (≈ 59.4 µg/mL) |  |  |  |  |
| COc1ccc(C2CCN(c3ccn[nH]3)CC2)c(Cl)c1 [Compound 66, 4-(2-Chloro-4-methoxyphenyl)-1-(1H-pyrazol-5-yl)piperidine] | 36 | 58 |  | 0.00 | 133 (≈ 38.8 µg/mL) |  |  |  |  |
